From patent US20190240225A1, “COMBINATION OF A BCL-2 INHIBITOR AND A MCL-1 INHIBITOR, USES AND PHARMACEUTICAL COMPOSITIONS THEREOF” (LES LABORATOIRES SERVIER, priority 2016, published 2019)

Columns and labels:
Assay type in all cases: cell-based
[1] = tested on: NALM-6; experiment: CellTiterGlo viability, B-ALL cell line; conditions: for IC50: NALM-6, B-ALL, single agent, 72 h; for growth inhibition: NALM-6 cells, fourth lowest concentration tested (FIG. 11, top left panel)
Description: In addition, all media contained penicillin (100 IU/ml), streptomycin (100 μg/ml) and L-glutamine (2 mM). […] All cell lines were determined to be free of mycoplasma contamination in-house. Stock solutions of compounds were prepared at a concentration of 5 mM in DMSO and stored at −20° C. In order to analyse the activity of the compounds as single agents, cells were seeded and treated with nine 2-fold serial dilutions of each compound dispensed individually directly into the cell assay plates. […] All the conditions were tested in triplicates. Luminescence was quantified on a multipurpose plate reader. Single agent IC50s were calculated using standard four-parametric curve fitting. […] In order to analyse the activity of the compounds in combination, cells were seeded and treated with seven or eight 3.16-fold serial dilutions of each compound dispensed, either individually or in all possible permutations in a checkerboard fashion, directly into the cell assay plates as indicated in FIG. 1. […] For B-ALL cell lines, two independent experiments, each one performed in duplicates, were performed. For T-ALL cell lines, one experiment performed in triplicate was performed. Luminescence was quantified on a multipurpose plate reader. […] All calculations were performed using Chalice TM Bioinformatics Software available in Horizon website.

[2] = tested on: BE-13; experiment: CellTiterGlo viability, T-ALL cell line; conditions: single agent, 72 h
Description: (§1) In addition, all media contained penicillin (100 IU/ml), streptomycin (100 μg/ml) and L-glutamine (2 mM). Cell lines were cultured at 37° C. in a humidified atmosphere containing 5% CO2 and expanded in T-150 flasks. In all cases cells were thawed from frozen stocks, expanded through ≥1 passage using appropriate dilutions, counted and assessed for viability using a CASY cell counter prior to plating 150 ul/well at the densities indicated in Table 9 into 96-well plates. All cell lines were determined to be free of mycoplasma contamination in-house.
(§2) Stock solutions of compounds were prepared at a concentration of 5 mM in DMSO and stored at −20° C. In order to analyse the activity of the compounds as single agents, cells were seeded and treated with nine 2-fold serial dilutions of each compound dispensed individually directly into the cell assay plates. Effects of the compounds on cell viability were assessed after 3 days of incubation at 37° C./5% CO2 by quantification of cellular ATP levels using CellTiterGlo at 75 μL reagent/well. All the conditions were tested in triplicates. Luminescence was quantified on a multipurpose plate reader. Single agent IC50s were calculated using standard four-parametric curve fitting. IC50 is defined as the compound concentration at which the CTG signal is reduced to 50% of that measured for the vehicle (DMSO) control.
(§3) In order to analyse the activity of the compounds in combination, cells were seeded and treated with seven or eight 3.16-fold serial dilutions of each compound dispensed, either individually or in all possible permutations in a checkerboard fashion, directly into the cell assay plates as indicated in FIG. 1. Effects of the single agents as well as their checkerboard combinations on cell viability were assessed after 3 days of incubation at 37° C./5% CO2 by quantification of cellular ATP levels using CellTiterGlo at 75 μL reagent/well. For B-ALL cell lines, two independent experiments, each one performed in duplicates, were performed. For T-ALL cell lines, one experiment performed in triplicate was performed. Luminescence was quantified on a multipurpose plate reader.
(§4) Potential synergistic interactions between compound combinations were assessed using the Excess Inhibition 2D matrix according to the Loewe additivity model and are reported as Synergy Score (Lehar et al, Nat Biotechnol. 2009 July; 27(7): 659-666). All calculations were performed using Chalice TM Bioinformatics Software available in Horizon website. The doubling time indicated in Table 9 is the mean of the doubling time obtained in the different passages (in T-150 flasks) performed from the thawing of the cells to their seeding in the 96-well plates.

[3] = tested on: CML-T1; experiment: CellTiterGlo viability, T-ALL cell line; conditions: single agent, 72 h
Description: as §1, §2, §3, §4

[4] = tested on: DND-41; experiment: CellTiterGlo viability, T-ALL cell line; conditions: 72 h
Description: as §1, §2, §3, §4

[5] = tested on: HPB-ALL; experiment: CellTiterGlo viability, T-ALL cell line; conditions: single agent, 72 h
Description: as §1, §2, §3, §4

[6] = tested on: MOLT-4; experiment: CellTiterGlo viability, T-ALL cell line; conditions: single agent, 72 h
Description: as §1, §2, §3, §4

[7] = tested on: TALL-104; experiment: CellTiterGlo viability, T-ALL cell line; conditions: single agent, 72 h
Description: as §1, §2, §3, §4

| Structure (SMILES) | IC50 ([1]; Homo sapiens) [µM] | growth inhibition [1] [%] | IC50 [2] [µM] | IC50 [3] [µM] | IC50 ([4]; DND41, single agent) [µM] | IC50 ([5]; Homo sapiens, HPBALL) [µM] | IC50 ([6]; Homo sapiens) [µM] | IC50 [7] [µM] | IC50 [1] [µM] | IC50 ([4]; single agent) [µM] | IC50 [5] [µM] | IC50 [6] [µM] |
| --- | --- | --- | --- | --- | --- | --- | --- | --- | --- | --- | --- | --- |
| Cl.O=C(c1cc(-c2cc3c(cc2C(=O)N2Cc4ccccc4C[C@H]2CN2CCOCC2)OCO3)n2c1CCCC2)N(c1ccccc1)c1ccc(O)cc1 [Compound 1, HCl, N-(4-hydroxyphenyl)-3-{6-[((3S)-3-(4-morpholinylmethyl)-3,4-dihydro-2(1H)-isoquinolinyl)carbonyl]-1,3-benzodioxol-5-yl}-N-phenyl-5,6,7,8-tetrahydro-1-indolizine carboxamide hydrochloride] | 3.63 | 8 | 6.7 | 15 | 9 | 4.5 | 3.29 | 15.9 | – | – | – | – |
| COc1ccccc1-c1nccc(COc2ccccc2C[C@@H](Oc2ncnc3sc(-c4ccc(F)cc4)c(-c4ccc(OCCN5CCN(C)CC5)c(Cl)c4C)c23)C(=O)O)n1 [Compound 3, (2R)-2-{[(5Sa)-5-{3-chloro-2-methyl-4-[2-(4-methylpiperazin-1-yl)ethoxy]phenyl}-6-(4-fluorophenyl)thieno[2,3-d]pyrimidin-4-yl]oxy}-3-(2-{[2-(2-methoxyphenyl)pyrimidin-4-yl]methoxy}phenyl)propanoic acid] | – | 6 | 0.015 | 6 | – | – | – | 0.044 | 0.12 | 7 | 0.66 | 0.026 |
